Test [1] addresses T1, D(3) dopamine receptor (Homo sapiens, UniProt P35462).
Test [2] addresses T1, D(3) dopamine receptor. The source holds these as a separate data set.
For test [3], the target named is T2, D(2) dopamine receptor (Homo sapiens, UniProt P14416).
The target of test [4] is T2, D(2) dopamine receptor. This is another data set of the same source.
Test [5] concerns the target T2, D(2) dopamine receptor. Kind of test: Hill coefficients for [3H]-raclopride binding to dopamine D2 receptor high-and low-affinity agonist states.
The target in test [6] is T3, 5-hydroxytryptamine receptor 1A (Rattus norvegicus, UniProt P19327).
T3 sequence (P19327 whole entry): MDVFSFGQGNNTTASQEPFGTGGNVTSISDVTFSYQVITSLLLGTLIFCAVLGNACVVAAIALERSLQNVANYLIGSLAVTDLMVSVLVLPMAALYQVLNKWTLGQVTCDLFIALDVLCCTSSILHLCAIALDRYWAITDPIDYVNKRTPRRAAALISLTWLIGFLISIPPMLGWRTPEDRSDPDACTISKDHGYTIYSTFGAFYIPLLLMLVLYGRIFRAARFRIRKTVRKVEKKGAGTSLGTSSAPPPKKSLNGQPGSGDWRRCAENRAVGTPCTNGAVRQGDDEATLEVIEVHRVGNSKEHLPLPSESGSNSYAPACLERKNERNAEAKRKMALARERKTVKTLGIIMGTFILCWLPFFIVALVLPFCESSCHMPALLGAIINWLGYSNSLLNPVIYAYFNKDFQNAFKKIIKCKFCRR
Kind of test: Inhibition of [3H]8-OH-DPAT binding to 5-hydroxytryptamine 1A receptor.

Test [7] concerns the target T2, D(2) dopamine receptor. Briefly: Inhibition of [3H]raclopride binding to Dopamine receptor D2.

This is an account of results in ChEMBL document CHEMBL1129381, “Novel (R)-2-amino-5-fluorotetralins: dopaminergic antagonists and inverse agonists” (J Med Chem, 1996).

One may read the Ki as the equilibrium dissociation constant of an inhibitor or competing ligand from its target. Low readings indicate tighter binding, high ones weaker binding.

T2 sequence (P14416 whole entry): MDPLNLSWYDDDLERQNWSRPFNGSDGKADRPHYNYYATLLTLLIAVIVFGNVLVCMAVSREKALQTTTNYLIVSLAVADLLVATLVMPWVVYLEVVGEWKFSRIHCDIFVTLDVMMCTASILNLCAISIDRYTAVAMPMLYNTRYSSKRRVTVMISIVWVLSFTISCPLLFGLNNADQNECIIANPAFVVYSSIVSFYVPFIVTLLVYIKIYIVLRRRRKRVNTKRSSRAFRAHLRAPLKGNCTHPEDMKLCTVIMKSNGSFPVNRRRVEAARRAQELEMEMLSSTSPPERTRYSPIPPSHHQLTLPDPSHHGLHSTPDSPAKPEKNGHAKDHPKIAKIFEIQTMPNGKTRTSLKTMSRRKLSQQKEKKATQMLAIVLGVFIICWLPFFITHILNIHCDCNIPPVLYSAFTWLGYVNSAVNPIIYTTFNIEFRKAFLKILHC
T1 sequence (P35462 whole entry): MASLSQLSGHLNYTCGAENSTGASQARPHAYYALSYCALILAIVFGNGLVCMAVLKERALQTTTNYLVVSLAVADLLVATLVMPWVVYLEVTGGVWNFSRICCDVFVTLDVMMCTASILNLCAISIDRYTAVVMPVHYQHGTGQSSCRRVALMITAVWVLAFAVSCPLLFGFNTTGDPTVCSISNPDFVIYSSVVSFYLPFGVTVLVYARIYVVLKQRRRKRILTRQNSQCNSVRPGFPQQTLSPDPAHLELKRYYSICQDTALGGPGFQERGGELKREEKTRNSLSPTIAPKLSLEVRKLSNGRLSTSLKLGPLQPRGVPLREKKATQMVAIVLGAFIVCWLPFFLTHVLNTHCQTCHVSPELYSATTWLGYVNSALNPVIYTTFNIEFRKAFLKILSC

Consider `CCCCN(CCC)[C@@H]1CCc2c(F)cccc2C1`, for which the Ki in test [1] was determined as 4.42 nM; in test [3], 45.6 nM; in test [4] it was 210 nM; in test [6], 44.5 nM. Moreover, the nH turned out to be 0.98 in test [2] and 0.91 in test [5].

On to `CCCCN[C@@H]1CCc2c(F)cccc2C1`, for which the inhibitory constant (Ki) is 158 nM in test [1], 254 nM in test [3], 790 nM in test [4] and 440 nM in test [6]. Besides, the nH in test [2] came to 0.79; in test [5], 0.93.

In test [5], `NCCc1ccc(O)c(O)c1` yielded a nH of 0.66.

For the compound `CCCN(Cc1ccccc1)[C@@H]1CCc2c(F)cccc2C1`, the Ki stood at 23.8 nM in test [1], 179 nM in test [3], 415 nM in test [4] and 28.8 nM in test [6]. Besides, the nH in test [2] was found to be 0.92; in test [5], 0.86.

Regarding `CCCN(CCC)[C@@H]1CCc2c(F)cccc2C1`, the Ki in test [1] came to 8.62 nM; in test [3], 26 nM; in test [4], 201 nM; in test [6], 30.2 nM. Moreover, the results for the nH in test [2] and in test [5] were 1.03 and 0.89, respectively.

As for `CCCN(CCCCN1C(=O)CC2(CCCC2)CC1=O)[C@@H]1CCc2c(F)cccc2C1`, the Ki in test [1] turned out to be 0.251 nM; in test [3] it was 4.94 nM; in test [7], 16.9 nM; in test [6] it was 0.246 nM. Also, the nH worked out at 0.92 in test [2] and 0.87 in test [5].

On to `Fc1cccc2c1CC[C@@H](NCc1ccccc1)C2`, for which the Ki amounted to 1050 nM in test [1], 779 nM in test [3], 2830 nM in test [4] and 494 nM in test [6]. Moreover, the nH was 0.88 in test [2] and 0.81 in test [5].

Take `CC(C)N[C@@H]1CCc2c(F)cccc2C1`: the figures for the Ki in test [1], in test [4] and in test [6] were 1450 nM, 5940 nM and 627 nM, respectively. In addition, the nH was found to be 0.9 in test [2] and 0.88 in test [5].

Turning to `CCCN(C(C)C)[C@@H]1CCc2c(F)cccc2C1`, the inhibitory constant (Ki) in test [1] is 199 nM; in test [3], 1530 nM; in test [4], 4720 nM; in test [6], 644 nM. Also, the nH in test [2] was determined as 0.91; in test [5], 0.94.

Consider `CCCN[C@@H]1CCc2c(F)cccc2C1`, for which the Ki in test [1] is 35.8 nM; in test [3], 167 nM; in test [4], 582 nM; in test [6], 108 nM. Further, the nH in test [2] came to 0.92; in test [5], 0.86.

In the case of `O=C1CC2(CCCC2)CC(=O)N1CCCCN[C@@H]1CCc2c(F)cccc2C1`, the Ki in test [1] is 4.94 nM; in test [3] it was 37 nM; in test [7], 68.2 nM; in test [6] it was 6.46 nM. For the same compound, the nH in test [2] and in test [5] was 0.88 each time.

Take `N[C@@H]1CCc2c(F)cccc2C1`: the Ki was 150 nM in test [1], 585 nM in test [3], 864 nM in test [4] and 525 nM in test [6]. Moreover, the nH in test [2] was 0.99; in test [5], 0.81.
